From DBAASP
In brackets after ≈: the same amount, converted by molar mass.

Experiments:
Experiment in all cases: ≥ marks a high value that may be exact or a test limit, other limits are often not marked, values filed in µg/mL are converted to µM
[1] = tested on: Escherichia coli NCTC 10418
[2] = tested on: Candida albicans NCPF 1467
[3] = tested on: Staphylococcus aureus NCTC 10788
[4] = tested on: Escherichia coli BW25113
[5] = tested on: Salmonella enterica serovar Typhimurium
[6] = tested on: Staphylococcus aureus ATCC 25923
[7] = tested on: Staphylococcus epidermidis
[8] = tested on: Candida albicans
[9] = tested on: Enterococcus faecalis ATCC 29212
[10] = tested on: Escherichia coli UB1005
[11] = tested on: Pseudomonas aeruginosa H103

| SMILES | MIC [1] | MIC [2] | MIC [3] | MIC [4] | MIC [5] | MIC [6] | MIC [7] | MIC [8] | MIC [9] | MIC [10] | MIC [11] |
| --- | --- | --- | --- | --- | --- | --- | --- | --- | --- | --- | --- |
| CC[C@H](C)[C@H](NC(=O)[C@H](CCCCN)NC(=O)[C@H](CCCCN)NC(=O)[C@@H](NC(=O)[C@H](CC(C)C)NC(=O)[C@H](CCCCN)NC(=O)[C@@H]1CCCN1C(=O)[C@@H](NC(=O)[C@H](CC(C)C)NC(=O)[C@H](CO)NC(=O)[C@H](CC(C)C)NC(=O)[C@@H](N)Cc1ccccc1)[C@@H](C)CC)C(C)C)C(=O)N[C@H](C(=O)N[C@@H](CCCCN)C(=O)N[C@@H](C)C(=O)N[C@@H](Cc1ccccc1)C(=O)N[C@@H](CCCCN)C(=O)O)[C@@H](C)CC [FLSLIPKLVKKIIKAFK] | 5 µM (≈ 9.93 µg/mL) | 2.5 µM (≈ 4.97 µg/mL) | 2.5 µM (≈ 4.97 µg/mL) |  |  |  |  |  |  |  |  |
| NCCCC[C@H](NC(=O)[C@H](CCCN=C(N)N)NC(=O)[C@H](Cc1c[nH]c2ccccc12)NC(=O)[C@H](Cc1c[nH]c2ccccc12)NC(=O)[C@H](CCCN=C(N)N)NC(=O)[C@@H](N)CCCCN)C(=O)N[C@@H](Cc1c[nH]c2ccccc12)C(=O)N[C@@H](Cc1c[nH]c2ccccc12)C(=O)N[C@@H](CCCN=C(N)N)C(=O)O [KRWWRKWWR] |  |  |  |  | 5.4 µM (≈ 8.03 µg/mL) | 0.7 µM (≈ 1.04 µg/mL) | 0.7 µM (≈ 1.04 µg/mL) | 5.4 µM (≈ 8.03 µg/mL) | 10.8 µM (≈ 16.1 µg/mL) | 2.7 µM (≈ 4.02 µg/mL) | ≥ 43.2 µM |
| CC[C@H](C)[C@H](NC(=O)[C@H](C)NC(=O)[C@H](CCCCN)NC(=O)[C@@H]1CCCN1C(=O)[C@@H](NC(=O)[C@H](CC(C)C)NC(=O)[C@H](CCCCN)NC(=O)[C@H](Cc1ccccc1)NC(=O)[C@H](CC(C)C)NC(=O)[C@@H](N)Cc1ccccc1)[C@@H](C)CC)C(=O)N[C@@H](CCCCN)C(=O)NCC(=O)N[C@@H](CC(C)C)C(=O)N[C@H](C(=O)N[C@@H](CCCCN)C(=O)N[C@@H](C)C(=O)N[C@H](C(=O)N[C@@H](CCCN=C(N)N)C(=O)N[C@@H](CCCCN)C(N)=O)[C@@H](C)CC)C(C)C [FLFKLIPKAIKGLVKAIRK] | 7.33 µM (≈ 16 µg/mL) | 1.83 µM (≈ 4 µg/mL) | 1.83 µM (≈ 4 µg/mL) |  |  |  |  |  |  |  |  |
| CC[C@H](C)[C@H](NC(=O)[C@H](C)NC(=O)[C@@H]1CCCN1C(=O)[C@H](CC(C)C)NC(=O)[C@@H](N)Cc1ccccc1)C(=O)N[C@@H](C)C(=O)NCC(=O)N[C@H](C(=O)N[C@@H](C)C(=O)N[C@@H](C)C(=O)N[C@@H](CCCCN)C(=O)N[C@@H](Cc1ccccc1)C(=O)N[C@@H](CC(C)C)C(=O)N1CCC[C@H]1C(=O)N[C@@H](CCCCN)C(=O)N[C@H](C(=O)N[C@@H](Cc1ccccc1)C(=O)N[C@H]1CSSC[C@@H](C(=O)O)NC(=O)[C@H](CCCCN)NC(=O)[C@H](CCCCN)NC(=O)[C@H]([C@@H](C)O)NC(=O)[C@H]([C@@H](C)CC)NC(=O)[C@H](C)NC1=O)[C@@H](C)CC)C(C)C [FLPAIAGVAAKFLPKIFCAITKKC] | 25.1 µM (≈ 64 µg/mL) | 3.14 µM (≈ 8 µg/mL) | 6.28 µM (≈ 16 µg/mL) |  |  |  |  |  |  |  |  |

Next, values leading:

| MIC [1] | MIC [2] | MIC [3] | MIC [4] | MIC [5] | MIC [6] | MIC [7] | MIC [8] | MIC [9] | MIC [10] | MIC [11] | SMILES |
| --- | --- | --- | --- | --- | --- | --- | --- | --- | --- | --- | --- |
|  |  |  | ≥ 32 µM |  |  |  |  |  |  |  | CC[C@H](C)[C@H](NC(=O)[C@@H]1CCCN1C(=O)[C@@H]1CCCN1C(=O)[C@H](CCCN=C(N)N)NC(=O)[C@H](Cc1ccccc1)NC(=O)[C@@H](N)CCCN=C(N)N)C(=O)N[C@@H](CCCN=C(N)N)C(=O)N[C@@H](CCCN=C(N)N)C(=O)N1CCC[C@H]1C(=O)N1CCC[C@H]1C(=O)N[C@H](C(=O)N[C@@H](CCCN=C(N)N)C(=O)N1CCC[C@H]1C(=O)N1CCC[C@H]1C(=O)N[C@@H](Cc1c[nH]c2ccccc12)C(=O)N[C@@H](Cc1ccc(O)cc1)C(=O)N1CCC[C@H]1C(=O)O)[C@@H](C)CC [RFRPPIRRPPIRPPWYP] |
|  |  |  | 8 µM (≈ 19.3 µg/mL) |  |  |  |  |  |  |  | CC[C@H](C)[C@H](NC(=O)[C@@H]1CCCN1C(=O)[C@H](CCCN=C(N)N)NC(=O)[C@H](CCCN=C(N)N)NC(=O)[C@H](Cc1c[nH]c2ccccc12)NC(=O)[C@@H](N)CCCN=C(N)N)C(=O)N[C@@H](CCCN=C(N)N)C(=O)N[C@@H](CCCN=C(N)N)C(=O)N[C@@H](CCCN=C(N)N)C(=O)N1CCC[C@H]1C(=O)N[C@H](C(=O)N[C@@H](CCCN=C(N)N)C(=O)N1CCC[C@H]1C(=O)N1CCC[C@H]1C(=O)N[C@@H](Cc1c[nH]c2ccccc12)C(=O)N[C@@H](Cc1ccc(O)cc1)C(=O)N[C@@H](CCCN=C(N)N)C(=O)O)[C@@H](C)CC [RWRRPIRRRPIRPPWYR] |
|  |  |  | 8 µM (≈ 18 µg/mL) |  |  |  |  |  |  |  | CC[C@H](C)[C@H](NC(=O)[C@@H]1CCCN1C(=O)[C@H](Cc1c[nH]c2ccccc12)NC(=O)[C@H](CCCN=C(N)N)NC(=O)[C@H](Cc1ccccc1)NC(=O)[C@@H](N)CCCN=C(N)N)C(=O)N[C@@H](CCCN=C(N)N)C(=O)N[C@@H](CCCN=C(N)N)C(=O)N1CCC[C@H]1C(=O)N1CCC[C@H]1C(=O)N[C@H](C(=O)N[C@@H](CCCN=C(N)N)C(=O)N1CCC[C@H]1C(=O)N1CCC[C@H]1C(=O)N[C@@H](Cc1ccccc1)C(=O)N[C@@H](Cc1ccc(O)cc1)C(=O)N1CCC[C@H]1C(=O)O)[C@@H](C)CC [RFRWPIRRPPIRPPFYP] |
|  |  |  |  | 2 µM (≈ 3.13 µg/mL) | 1 µM (≈ 1.56 µg/mL) | 1 µM (≈ 1.56 µg/mL) | 8 µM (≈ 12.5 µg/mL) | 4 µM (≈ 6.26 µg/mL) | 2 µM (≈ 3.13 µg/mL) | 2 µM (≈ 3.13 µg/mL) | CC[C@H](C)[C@H](NC(=O)[C@H](CCCN=C(N)N)NC(=O)[C@H](CC(C)C)NC(=O)[C@H](CCCN=C(N)N)NC(=O)[C@@H](N)C(C)C)C(=O)N[C@@H](CCCN=C(N)N)C(=O)N[C@H](C(=O)N[C@@H](CCCN=C(N)N)C(=O)N[C@H](C(=O)N[C@H](C(=O)N[C@@H](CCCN=C(N)N)C(=O)N[C@@H](CCCCN)C(=O)O)[C@@H](C)CC)C(C)C)C(C)C [VRLRIRVRVIRK] |
|  |  |  |  | 4.6 µM (≈ 6.52 µg/mL) | 1.2 µM (≈ 1.7 µg/mL) | 1.2 µM (≈ 1.7 µg/mL) | 4.6 µM (≈ 6.52 µg/mL) | 4.6 µM (≈ 6.52 µg/mL) | 4.6 µM (≈ 6.52 µg/mL) | 4.6 µM (≈ 6.52 µg/mL) | CC[C@H](C)[C@H](NC(=O)[C@H](CCCCN)NC(=O)[C@H](CCCN=C(N)N)NC(=O)[C@H](Cc1c[nH]c2ccccc12)NC(=O)[C@H](Cc1c[nH]c2ccccc12)NC(=O)[C@H](Cc1c[nH]c2ccccc12)NC(=O)[C@H](CCCCN)NC(=O)[C@H](Cc1c[nH]c2ccccc12)NC(=O)[C@@H](N)CCCCN)C(=O)O [KWKWWWRKI] |
|  |  |  |  | 5.4 µM (≈ 7.32 µg/mL) | 1.3 µM (≈ 1.76 µg/mL) | 0.883 µM (≈ 1.2 µg/mL) | 10.7 µM (≈ 14.5 µg/mL) | 5.4 µM (≈ 7.32 µg/mL) | 0.7 µM (≈ 0.948 µg/mL) | 21.4 µM (≈ 29 µg/mL) | CC[C@H](C)[C@H](NC(=O)[C@H](CCCN=C(N)N)NC(=O)[C@@H](NC(=O)[C@H](Cc1c[nH]c2ccccc12)NC(=O)[C@H](CCCN=C(N)N)NC(=O)[C@H](CCCN=C(N)N)NC(=O)[C@@H](N)CC(C)C)[C@@H](C)CC)C(=O)N[C@@H](CCCN=C(N)N)C(=O)N[C@@H](Cc1c[nH]c2ccccc12)C(=O)O [LRRWIRIRW] |
